The structures appear in SMILES notation. “Also recorded” adds a separate entry of the source.

Assay [1] relates to 293mitoPARP Zellen. As to the kind of experiment: Cell viability (MTT assay) of 293mitoPARP cells. In kind it is cell-based, menschlichen Zellen. To be noted: for Zell-Überleben: FK866 (2 µM), 100 µM metabolite, 72 h, Fig. 3A. Background: Tetrazolium dyes change colour on reduction, which living cells bring about.
Procedure: (§1) Inhibitoren (2 µM FK866, 2 mM 3-AB, 10 µM NBTI, 2 µM Dipyridamol, 2 mM CMP, 25 µM PPADS, 1 mM Ap4A) oder Metaboliten (100 µM NAD^+, 100 µM NAAD, 100 µM NMN, 100 µM NAMN, 100 µM NA, 100 µM NR) wurden dem Zellkulturmedium zugesetzt, wie angegeben. […] Die Behandlung mit Inhibitoren und Metaboliten wurde für 24-48 h vor der Analyse von PAR Bildung und die Lebensfähigkeit der Zellen durchgeführt (72 h für 293mitoPARP Zellen, 96 h für HeLa S3-Zellen und 120 h für HepG2-Zellen). Die Lebensfähigkeit der Zellen wurde mittels MTT-Assay bestimmt.
A further assay deals with HeLa S3-Zellen. As to the kind of experiment: Cell viability (MTT assay) of HeLa S3 cells. In kind it is cell-based, menschlichen Zellen. To be noted: for Überleben: FK866 (2 µM), 100 µM metabolite, 96 h, Fig. 3B.
Assay [2] relates to menschlichen Zellen. Nature of the assay: Mitochondrial NAD+ generation / PAR formation from extracellular precursors with inhibitors, cell line not stated. To be noted: for Funktion von NMN als extrazellulärer NAD^+-Vorläufer: NMN as precursor in presence of nucleoside transporter inhibitor (2 µM Dipyridamol, 10 µM NBTI); for NR-Nutzung: NR as precursor, nucleoside transporter inhibitor added. In kind it is cell-based.

Assay [3] concerns 293mitoPARP Zellen. Nature of the assay: Mitochondrial NAD+ content by PAR formation (mitoPARP) in 293mitoPARP cells. In kind it is cell-based, menschlichen Zellen. To be noted: NamPRT inhibited by FK866 (2 µM), 100 µM metabolite in the medium, Fig. 3A. How it is done: Inhibitoren (2 µM FK866, 2 mM 3-AB, 10 µM NBTI, 2 µM Dipyridamol, 2 mM CMP, 25 µM PPADS, 1 mM Ap4A) oder Metaboliten (100 µM NAD^+, 100 µM NAAD, 100 µM NMN, 100 µM NAMN, 100 µM NA, 100 µM NR) wurden dem Zellkulturmedium zugesetzt, wie angegeben. NR wurde wie beschrieben bereitgestellt (Dölle et al., Anal. Biochem. 385 (2009), 377-379). Die Behandlung mit Inhibitoren und Metaboliten wurde für […] vor der Analyse von PAR Bildung und die Lebensfähigkeit der Zellen durchgeführt (72 h für 293mitoPARP Zellen, 96 h für HeLa S3-Zellen und 120 h für HepG2-Zellen). Die Lebensfähigkeit der Zellen wurde mittels MTT-Assay bestimmt.
Es wurden 293mitoPARP Zellen bereitgestellt, die ein Fusionsprotein exprimieren ("mitoPARP"), bestehend aus EGFP und PARP1cd (poly-ADP-Ribose-Polymerase-1), welches auf die mitochondriale Matrix abgezielt wurde. Mit mitochondrialem NAD^+ als Substrat generieren diese Zellen konstitutiv Protein-gebundenes PAR (Protein-gebundene poly-ADP-Ribose), welches immunchemisch visualisiert wird. Variationen im Umfang der erfassten PAR spiegeln damit Veränderungen des mitochondrialen NAD^+-Gehaltes wider. Ebenso wurde die transiente Expression von mitoPARP in HepG2 und HeLa S3 Zellen verwendet.
Ein PAR-Signal hängt sowohl von der katalytischen Aktivität von mitoPARP als auch von der Anwesenheit von NAD^+ ab. Folglich erlaubt die mitoPARP-Expression die Erkennung von Änderungen im mitochondrialen NAD^+-Gehalt.

The next assay relates to HeLa S3 Zellen. As to the kind of experiment: Mitochondrial NAD+ content by PAR formation (transient mitoPARP) in HeLa S3 cells. In kind it is cell-based, menschlichen Zellen. To be noted: FK866 (2 µM), 100 µM metabolite, Fig. 3B.
Assay [4] relates to menschlichen Zellen. Nature of the assay: Cell viability (MTT assay) with extracellular precursors and inhibitors, cell line not stated. In kind it is cell-based.
Where [5] appears, read: NAD^+ as extracellular precursor, competitive NPP substrate added (1 mM Ap4A), effect similar to PPADS.
The mark [6] stands for this setting: NMN as precursor, 2 mM CMP added.
[7] abbreviates: extracellular NR (100 µM), b59: in Gegenwart von CMP, Fig. 4B.
[8] abbreviates: NAD^+ as extracellular precursor, inhibitor added (25 µM PPADS), cell line not stated.

Procedure for HeLa S3-Zellen: as §1

Consider `Nc1ncnc2c1ncn2[C@@H]1O[C@H](COP(=O)(O)OP(=O)(O)OP(=O)(O)OP(=O)(O)OC[C@H]2O[C@@H](n3cnc4c(N)ncnc43)[C@H](O)[C@@H]2O)[C@@H](O)[C@H]1O` [Ap4A, Diadenosintetraphosphat], for which the “Lebensfähigkeit der Zellen” value in the assay on 293mitoPARP Zellen [1] (setting [5]) and with HeLa S3-Zellen (setting [5]) was “ähnlichen Effekt” in each case.
In the case of `Nc1ccn([C@@H]2O[C@H](COP(=O)(O)O)[C@@H](O)[C@H]2O)c(=O)n1` [CMP], the Zellviabilität entry in the assay with 293mitoPARP Zellen [1] (setting [6]) and with HeLa S3-Zellen (setting [6]) was “verringert” each time.
Consider `OCCN(CCO)c1nc(N2CCCCC2)c2nc(N(CCO)CCO)nc(N3CCCCC3)c2n1` [Dipyridamol], for which the “Funktion von NMN als extrazellulärer NAD^+-Vorläufer” value in the assay on menschlichen Zellen [2] (Fig. 4A) is on record as “verlor NMN seine Funktion”. The NR-Nutzung result in the assay on menschlichen Zellen [2] (Fig. 4B) is reported as “hemmen”.
For the compound `O=C(/C=C/c1cccnc1)NCCCCC1CCN(C(=O)c2ccccc2)CC1` [FK866], the “Nam Nutzung” value in the assay with menschlichen Zellen [2] (2 µM FK866, Fig. 3) is “gehemmt”.
With `O=C(O)c1cccnc1` [NA, Nikotinsäure], in the assay with 293mitoPARP Zellen [1], the Zell-Überleben entry is reported as “wiederherstellen”. In addition, the Überleben entry with HeLa S3-Zellen is “Restaurierung des Überlebens”. In addition, the “mitochondrialer NAD^+-Gehalt (PAR)” value in the assay on 293mitoPARP Zellen [3] was “wiederherstellen”.
`O=C([O-])c1ccc[n+]([C@@H]2O[C@H](COP(=O)(O)O)[C@@H](O)[C@H]2O)c1` [NAMN, Nikotinsäure-Mononukleotid]: the Zell-Überleben result in the assay with 293mitoPARP Zellen [1] was “schützen; also recorded: wiederherstellen”. Further, the “mitochondriale NAD^+-Generierung von NAMN” value in the assay on menschlichen Zellen [2] (NAMN as precursor in presence of CMP, Dipyridamol, NBTI, Fig. 4A) is recorded as “sensitiv gegenüber diesen Inhibitoren, wenn auch weniger stark”. Besides, in the assay on HeLa S3 Zellen, the “mitochondriale NAD^+-Bildung” value is recorded as “unterstützen”. For the same compound, the Überleben result with HeLa S3-Zellen is “schützen; also recorded: Restaurierung des Überlebens”. For the same compound, the “mitochondrialer NAD^+-Gehalt (PAR)” value with 293mitoPARP Zellen [3] was “unterstützen; also recorded: wiederherstellen”.
In the case of `O=[N+]([O-])c1ccc(CSc2ncnc3c2ncn3[C@@H]2O[C@H](CO)[C@@H](O)[C@H]2O)cc1` [NBTI], in the assay with menschlichen Zellen [2] (Fig. 4A), the “Funktion von NMN als extrazellulärer NAD^+-Vorläufer” value is reported as “verlor NMN seine Funktion”. For the same compound, in the assay on menschlichen Zellen [2] (Fig. 4B), the NR-Nutzung result is given as “hemmen”.
For the compound `NC(=O)c1ccc[n+]([C@@H]2O[C@H](COP(=O)([O-])O)[C@@H](O)[C@H]2O)c1` [NMN, Nikotinamid-Mononukleotid], the Zell-Überleben result with 293mitoPARP Zellen [1] is reported as “schützen; also recorded: wiederherstellen”. Moreover, in the assay with HeLa S3 Zellen, the “mitochondriale NAD^+-Bildung” value is “unterstützen”. Besides, in the assay on HeLa S3-Zellen, the Überleben result is “schützen; also recorded: Restaurierung des Überlebens”. The “mitochondrialer NAD^+-Gehalt (PAR)” value in the assay with 293mitoPARP Zellen [3] is “unterstützen; also recorded: wiederherstellen”.
Consider `NC(=O)c1ccc[n+]([C@@H]2O[C@H](CO)[C@@H](O)[C@H]2O)c1` [NR, 1-[3,4-Dihydroxy-5-(hydroxymethyl)oxolan-2-yl]pyridin-5-carboxamid], for which the “mitochondriale PAR-Bildung / mitochondriale NAD^+-Generierung” value in the assay with menschlichen Zellen [2] (setting [7]) is “unterstützt”. For the same compound, the “Zelllebensfähigkeit / Zellviabilität” value with menschlichen Zellen [4] (setting [7]) is reported as “unterstützt”.
Turning to `Cc1nc(N=Nc2ccc(S(=O)(=O)O)cc2S(=O)(=O)O)c(COP(=O)(O)O)c(C=O)c1O` [PPADS], the “Wiederherstellung des mitochondrialen NAD^+-Pools” value with menschlichen Zellen [2] (setting [8]) was “verhindert”. The “Überleben der Zelle” value in the assay with menschlichen Zellen [4] (setting [8]) is “verhindert”.

(Values after patent EP2574339A1, “Pharmaceutical preparation for treating NADH-related illnesses” (Huber, Johannes, priority 2011, dated 2013).)
